Data set [1] has as its system human Ph+ ALL SUPB15 cells. The experiment in a line: Cell viability, MTS assay, 72 h. The class given is cell-based. The procedure:
Drug delivery to cell suspensions was accomplished with a V & P Scientific (San Diego, Calif.) pin. For murine-human comparisons, human SUP-B15 Ph+ ALL cells (DSMZ cell culture collection, Germany) in McCoy's media containing 20% fetal calf serum and penicillin/streptomycin (Invitrogen, Carlsbad, Calif.), were plated at 12,500 cells in 25 μL per well in black clear-bottom 384-well microtiter plates. Drugs were transferred by pin-transfer. After 72 h incubation at 37° C., 20% (by volume) MTS assay reagent (CellTiter 96 Aqueous One Solution, Promega, Madison, Wis.) was added, microtiter plates were incubated for 75 min at 37° C., and read colorimetrically at 490 nm.

The nature of data set [2]: In vivo toxicity studies of DHA by oral gavage. As to conditions: repeated single doses of 300 mg/kg, 5 days/week. The protocol:
In toxicity studies, DHA was ranged up to 300 mg/kg as a single or split dose for 5 days/week over a six week time period. […] During therapeutic studies, animal weights were monitored daily to ensure no significant body weight reductions.

Data set [3] deals with Arf−/− BCR-ABL^WT LICs. The class given is in vivo.
Data set [4] deals with Arf−/− BCR-ABL^WT LICs. The experiment in a line: LIC growth inhibition, CellTiter-Glo (CTG) assay, 72 h. The data set is classed as cell-based, murine. The note with it: for effect of cytokine on dasatinib potency: 72-h dasatinib exposure in presence of increasing concentrations of cytokine.
Text: Replication-defective mouse stem cell virus (MSCV) retroviral vectors co-expressing either the wild-type (WT) allele of human p185^BCR-ABL or mutant BCR-ABL alleles p185^T315I or p185^F317L, and either green fluorescent protein (GFP) or luciferase, were packaged into replication-incompetent ecotropic virions. Whole bone marrow cell suspensions from Arf^−/− young adult mice were infected to produce Arf^−/− p185+ pre-B cells. […] Prior to use in any assays, Arf^−/− p185^WT and Arf^−/− p185^T315I pre-B cells (BCR-ABL^WT leukemia initiating cells (LICs) and BCR-ABL^T315I LICs, respectively) were thawed and allowed to recover in BCM10 for 3 days.
The maximum dimethyl sulfoxide (DMSO) concentration tolerated by LICs in culture was determined to be 0.2% (by volume) and was maintained at ≦0.1% (by volume) in all subsequent work. […] Both cell types were plated at multiple cell dilutions (n=3 for each condition, time=0 h) in 6-well plates and serially followed daily for 5 days to evaluate absolute viable cell count, total viability, doubling times, and total population doublings, using the Beckman Coulter cell counter (trypan blue staining) and fluorescence-activated cell sorting (FACS) analysis in parallel. […] FACS cell-cycle analysis confirmed that a population doubling time less than 14 h was sufficient to maintain cells in exponential growth (>50% cells in S-phase).
After a 72 h drug challenge, LIC growth was measured by the 3 cellular readouts: CellTiter-Glo® (CTG) assay (ATP content), MTS (3-(4,5-dimethylthiazol-2-yl)-5-(3-carboxymethoxyphenyl)-2-(4-sulfophenyl)-2H-tetrazolium) assay (viability), and high-throughput flow cytometry (total viability and viable cell counts by DAPI exclusion). Measured assay readouts at various drug concentrations (x-axis) were normalized to DMSO-treated LICs and graphed (+/−sd) on y-axis.

Where two headings read alike, the source gives them in different places.

Turning to `C[C@@H]1CCC2[C@@H](C)[C@@H](O)O[C@@H]3OC4(C)CC[C@@H]1[C@@]23OO4` (some centres unmarked) [DHA, dihydroartemisinin], the “killing of human Ph+ ALL cell line” value in data set [1] is “actively kill”. The toxicity findings result in data set [2] was “no significant weight loss, lethargy, seizures or deaths”. In addition, the results for the “efficacy alone in high-burden leukemia model” value in data set [3] (200 mg/kg) and in data set [3] (300 mg/kg) were “completely ineffective” and “poorly effective”, respectively. The “survival benefit, monotherapy” value in data set [3] (IL7+/+ host mice, low-burden 2×10^3 LICs, 100, 200, 300 mg/kg once daily 5 days/week from day 3) was “dose-dependent survival benefit”.

For the molecule `C[C@@H]1CC[C@H]2[C@@H](C)C(=O)O[C@@H]3O[C@@]4(C)CC[C@@H]1[C@]32OO4` [artemisinin], the anti-LIC potency result in data set [4] (BCR-ABL^WT and BCR-ABL^T315I LICs, 72 h, absence or presence of 1 ng/mL murine IL7) is given as “lower than that of artesunate or DHA”. Consider `C[C@H]1[C@H](OC(=O)CCC(=O)O)O[C@@H]2O[C@@]3(C)CC[C@H]4[C@H](C)CC[C@@H]1[C@@]24OO3` [artesunate], for which the “killing of human Ph+ ALL cell line” value in data set [1] is listed as “actively kill”. Turning to “IL4: recombinant murine hematopoietic cytokine”, the “effect of cytokine on dasatinib potency” value in data set [4] was “confer some resistance”.

On to TGF-β, for which the “effect of cytokine on dasatinib potency” value in data set [4] is listed as “enhance dasatinib activity”. The same measure, in the same setting: under “TSLP: thymic stromal lymphopoietin, IL7-like cytokine” stands “confer some resistance”.

B1: IL7: recombinant murine cytokine, leukemia-microenvironment host factor (protein, UniProt P10168 26-154, looked up)
Interleukin-7: ECHIKDKEGKAYESVLMISIDELDKMTGTDSNCPNNEPNFFRKHVCDDTKEAAFLNRAARKLKQFLKMNISEEFNVHLLTVSQGTQTLVNCTSKEEKNVKEQKKNDACFLKRLLREIKTCWNKILKGSI
For B1, in data set [4], the “effect of cytokine on dasatinib potency” value is “strongest protection against dasatinib”.

The record behind these values is patent US9801851B2, “Methods and compositions for the treatment of BCR-ABL positive lymphoblastic leukemias” (ST. JUDE CHILDREN'S RESEARCH HOSPITAL, priority 2012, dated 2017).
